Data on 19 compounds can be found in patent publication US5852007A, “Cysteine and serine protease inhibitors containing D-amino acid at the P2 position, methods of making same, and methods of using same” (priority 1997, dated 1998).

By IC50 is commonly meant the concentration that inhibits the measured activity by half.

Common to all, as to format: biochemical
Test [1] addresses T1, Recombinant human calpain I (Homo sapiens, UniProt P07384).
T1 construct: made in house
T1 sequence (P07384 1-714): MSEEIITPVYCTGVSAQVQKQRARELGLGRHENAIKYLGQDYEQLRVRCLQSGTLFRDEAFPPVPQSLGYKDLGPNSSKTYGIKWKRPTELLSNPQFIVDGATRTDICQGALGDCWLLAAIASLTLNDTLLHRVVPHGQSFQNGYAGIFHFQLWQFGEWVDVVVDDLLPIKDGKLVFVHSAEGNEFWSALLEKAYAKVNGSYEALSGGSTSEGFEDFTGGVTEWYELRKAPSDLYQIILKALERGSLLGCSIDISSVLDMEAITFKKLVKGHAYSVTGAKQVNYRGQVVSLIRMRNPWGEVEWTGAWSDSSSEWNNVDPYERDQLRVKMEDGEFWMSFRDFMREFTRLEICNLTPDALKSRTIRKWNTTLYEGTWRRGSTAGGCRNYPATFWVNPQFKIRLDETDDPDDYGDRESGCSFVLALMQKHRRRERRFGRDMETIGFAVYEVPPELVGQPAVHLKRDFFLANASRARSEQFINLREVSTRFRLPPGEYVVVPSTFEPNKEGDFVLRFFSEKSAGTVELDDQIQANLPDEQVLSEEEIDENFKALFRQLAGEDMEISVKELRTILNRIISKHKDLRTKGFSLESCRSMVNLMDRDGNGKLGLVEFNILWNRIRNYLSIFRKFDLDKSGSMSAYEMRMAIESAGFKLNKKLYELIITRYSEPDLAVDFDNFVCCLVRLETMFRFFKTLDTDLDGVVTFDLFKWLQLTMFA
The test can be described thus: Inhibition of calpain I activity. The conditions noted are these: Table III.

Test [2] deals with T2, cathepsin B (Homo sapiens, UniProt P07858).
T2 construct: purchased Calbiochem 219364
Kind of test: Inhibition of cathepsin B. The conditions noted are these: Table III; for inhibition at 1 µM: read-out: Cat B % I @ 1 uM; for IC50: read-out: Cat B IC50. As for the experimental part: (§1) Additionally,the order of reagents added to the plate was altered because both enzymes are constitutively active. Following inhibitor addition to the plates, appropriate 2× concentrated stock dilutions of the enzyme preparations were made in assay buffer and 100 μl added to each well. The assay was initiated by addition of 100 μl of 2× concentrated stock dilution of substrate in assay buffer.

Test [3] addresses T3, cathepsin L (Homo sapiens, UniProt P07711).
T3 construct: purchased Calbiochem 219402
The test can be described thus: Inhibition of cathepsin L. The note with it: Table III; 1 uM; read-out: Cat L % I @ 1 uM. The procedure: as §1

The target of test [4] is T4, thrombin (Homo sapiens, UniProt P00734).
T4 construct: purchased Sigma Chem. Co. T-7009
The test can be described thus: Inhibition of thrombin. The note with it: Table III, 10 uM; for inhibition at 10 µM: read-out: Thrombin % I @ 10 uM.

In test [5] the target is T5, α-chymotrypsin (Bos taurus, UniProt P00766).
T5 construct: purchased Sigma Chem. Co. C-3142
Kind of test: Inhibition of α-chymotrypsin. The conditions noted are these: Table III, 10 uM; for inhibition at 10 µM: read-out: Chymotrypsin % I @ 10 uM. The procedure, abridged:
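Enzyme added to inhibitor first, then reaction started with substrate; no calcium activation needed as enzyme is constitutively active. Fluorogenic substrate hydrolysis read every 5 min up to 30 min ([…]).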

Each structure is given as a SMILES string. Square brackets hold non-standard residues; d marks the D form. Peptide text beside a SMILES is read from it. * marks the point of attachment. ξ: configuration not given here. d(αMeF) = C[C@@](N)(Cc1ccccc1)C(=O)O; Tos = Cc1ccc(S(=O)(=O)*)cc1; ξαMeL = CC(C)CC(C)(N)C(=O)O; ξF = NC(Cc1ccccc1)C(=O)O; Bn = c1ccc(C*)cc1; Ms = CS(=O)(=O)*

T3 sequence (P07711 114-288 limits assumed): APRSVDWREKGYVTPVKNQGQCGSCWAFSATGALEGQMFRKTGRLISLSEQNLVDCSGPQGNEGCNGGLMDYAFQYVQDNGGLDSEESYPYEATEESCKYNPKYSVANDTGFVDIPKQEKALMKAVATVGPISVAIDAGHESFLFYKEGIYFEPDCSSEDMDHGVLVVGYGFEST
T3 sequence (P07711 292-333 limits assumed): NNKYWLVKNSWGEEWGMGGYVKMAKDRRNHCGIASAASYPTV

Regarding `CC(C)C[C@@H](C=O)NC(=O)[C@@H](COCc1ccccc1)NS(C)(=O)=O` [Compound 88] (Ms-[dS](Bn)-Leu-aldehyde), the IC50 in test [1] was found to be 93 nM. The inhibition at 0.1 µM in test [1] (0.1 uM) amounted to 40%. The inhibition at 1 µM amounted to 88% in test [2] (1 uM) and 91% in test [3]. In addition, the inhibition at 10 µM in test [4] worked out at 5%; in test [5], 0%.
Consider `O=C[C@H](Cc1ccccc1)NC(=O)[C@H]1CCCN1S(=O)(=O)Cc1ccccc1` [Compound 102], for which the IC50 in test [1] is 72 nM. The inhibition at 0.1 µM in test [1] (0.1 uM) came out at 63%. Further, the inhibition at 1 µM in test [2] (1 uM) worked out at 69%; in test [3] it was 73%. Besides, the inhibition at 10 µM in test [4] worked out at 7%; in test [5] it was 0%.
For the compound `Cc1ccc(S(=O)(=O)N2CCC[C@@H]2C(=O)N[C@H](C=O)Cc2ccccc2)cc1` [Compound 120] (Tos-[dP]-Phe-aldehyde), the IC50 in test [1] came to 14 nM. For the same compound, the inhibition at 0.1 µM in test [1] (0.1 uM) turned out to be 87%. For the same compound, the inhibition at 1 µM in test [2] (1 uM) came out at 50%; in test [3], 65%. Moreover, the inhibition at 10 µM in test [4] came to 0%; in test [5], 12%.
For the compound `CCS(=O)(=O)N[C@H](Cc1ccccc1)C(=O)N[C@H](C=O)Cc1ccccc1` [Compound 60], the IC50 in test [1] amounted to 33 nM. The inhibition at 0.1 µM in test [1] (0.1 uM) was determined as 74%. In addition, the inhibition at 1 µM in test [2] (1 uM) was 97%; in test [3], 100%. Moreover, the inhibition at 10 µM in test [4] and in test [5] was 0% in each case.
Regarding `CS(=O)(=O)N[C@H](COCc1ccccc1)C(=O)N[C@H](C=[N+]([O-])Cc1ccccc1)Cc1ccccc1` [Compound 117], the inhibition at 0.1 µM in test [1] (0.1 uM) is 21%. In addition, the inhibition at 1 µM in test [2] (1 uM) worked out at 95%; in test [3], 100%. Further, the inhibition at 10 µM in test [4] and in test [5] was 0% in each case.
In the case of `CN(Cc1ccccc1)C(=O)CC[C@@H](NS(C)(=O)=O)C(=O)N[C@H](C=O)Cc1ccccc1` [Compound 79], in test [1], the IC50 was 1000 nM. Besides, the inhibition at 0.1 µM in test [1] (0.1 uM) amounted to 47%. In addition, the values for the inhibition at 1 µM in test [2] (1 uM) and in test [3] were 99% and 93%, respectively. Further, the inhibition at 10 µM amounted to 1% in test [4] and 8% in test [5].
With `CC(C)CC(C)(C=O)NC(=O)[C@@H](COCc1ccccc1)NS(C)(=O)=O` (stereo partly drawn) [Compound 110] (Ms-[dS](Bn)-[ξαMeL]-aldehyde), the inhibition at 0.1 µM in test [1] (0.1 uM) was 10%. For the same compound, the inhibition at 1 µM in test [2] (1 uM) was determined as 12%; in test [3] it was 83%. Also, the inhibition at 10 µM in test [4] and in test [5] was 0% in each case.
On to `CN1CCN(C)C1[C@H](Cc1ccccc1)NC(=O)[C@@H](COCc1ccccc1)NS(C)(=O)=O` [Compound 133], for which, in test [1], the IC50 amounted to 13 nM. The inhibition at 0.1 µM in test [1] (0.1 uM) amounted to 93%. The inhibition at 1 µM in test [2] (1 uM) and in test [3] was 100% throughout. The inhibition at 10 µM in test [4] was found to be 0%; in test [5], 1%.
For the compound `CC(=O)Nc1ccc(S(=O)(=O)N2CCC[C@@H]2C(=O)N[C@H](C=O)Cc2ccccc2)cc1` [Compound 103], the IC50 in test [1] came to 71 nM. For the same compound, the inhibition at 0.1 µM in test [1] (0.1 uM) is 37%. In addition, the figures for the inhibition at 1 µM in test [2] (1 uM) and in test [3] were 40% and 56%, respectively. Moreover, the results for the inhibition at 10 µM in test [4] and in test [5] were 3% and 26%, respectively.
`CS(=O)(=O)N[C@H](COCc1ccccc1)C(=O)N[C@@H](Cc1ccccc1)C(=O)CCc1ccccc1` [Compound 125]: the inhibition at 0.1 µM in test [1] (0.1 uM) came out at 0%. Besides, the inhibition at 1 µM was 47% in test [2] (1 uM) and 39% in test [3]. The inhibition at 10 µM in test [4] amounted to 4%; in test [5] it was 0%.
For the compound `CS(=O)(=O)N[C@H](COCc1ccccc1)C(=O)N[C@H](C=O)CCCCNC(=O)OCc1ccccc1` [Compound 92], the 50% inhibitory concentration (IC50) in test [1] came out at 4 nM. Moreover, in test [1] (0.1 uM), the inhibition at 0.1 µM amounted to 100%. In addition, the inhibition at 1 µM in test [2] (1 uM) and in test [3] was 100% in each case. Further, the inhibition at 10 µM in test [4] and in test [5] was 0% in each case.
`CS(=O)(=O)N[C@@H](C(=O)N[C@H](C=O)Cc1ccccc1)c1cccs1` [Compound 98]: the half-inhibitory concentration (IC50) in test [1] stood at 8 nM; in test [2] it was 16 nM. The inhibition at 0.1 µM in test [1] (0.1 uM) turned out to be 96%. Moreover, the inhibition at 1 µM came to 98% in test [2] (1 uM) and 100% in test [3]. Further, the figures for the inhibition at 10 µM in test [4] and in test [5] were 16% and 49%, respectively.
In the case of `C[C@](Cc1ccccc1)(NS(C)(=O)=O)C(=O)NC(C=O)Cc1ccccc1` (stereo partly drawn) [Compound 105] (Ms-[d(αMeF)]-[ξF]-aldehyde), in test [1] (0.1 uM), the inhibition at 0.1 µM was determined as 9%. In addition, the inhibition at 1 µM in test [2] (1 uM) was 45%; in test [3] it was 71%. In addition, the results for the inhibition at 10 µM in test [4] and in test [5] were 0% and 10%, respectively.
For `O=C[C@H](Cc1ccccc1)NC(=O)[C@@H](Cc1ccccc1)NS(=O)(=O)c1cccs1` [Compound 75], the IC50 in test [1] was 20 nM. Besides, the inhibition at 0.1 µM in test [1] (0.1 uM) was found to be 91%. Besides, the results for the inhibition at 1 µM in test [2] (1 uM) and in test [3] were 100% and 99%, respectively. Moreover, the figures for the inhibition at 10 µM in test [4] and in test [5] were 10% and 2%, respectively.
As to `CS(=O)(=O)NC(CCSCc1ccccc1)C(=O)N[C@H](C=O)Cc1ccccc1` (single isomer, unassigned) [Compound 107], in test [1], the IC50 was 67 nM. In addition, in test [1] (0.1 uM), the inhibition at 0.1 µM was 63%. Also, the figures for the inhibition at 1 µM in test [2] (1 uM) and in test [3] were 97% and 100%, respectively. Further, the “Thrombin % I @ 10 uM” value in test [4] is recorded as 2%. In test [5], the “Chymotrypsin % I @ 10 uM” value turned out to be 11%.
On to `CS(=O)(=O)N[C@H](CS(=O)(=O)Cc1ccccc1)C(=O)N[C@H](C=O)Cc1ccccc1` [Compound 80], for which the IC50 in test [1] was 15 nM; in test [2], 46 nM. For the same compound, in test [1] (0.1 uM), the inhibition at 0.1 µM is 90%. Further, the inhibition at 1 µM came to 99% in test [2] (1 uM) and 100% in test [3]. Further, the inhibition at 10 µM in test [4] was determined as 4%; in test [5], 8%.
Turning to `Cc1ccc(S(=O)(=O)O[C@@H]2C[C@H](C(=O)N[C@H](C=O)Cc3ccccc3)N(S(=O)(=O)c3ccc(C)cc3)C2)cc1` [Compound 121], the inhibition at 0.1 µM in test [1] (0.1 uM) came to 28%. The inhibition at 1 µM in test [2] (1 uM) is 83%; in test [3], 17%. In addition, the inhibition at 10 µM in test [4] amounted to 3%; in test [5] it was 18%.
As to `CS(=O)(=O)N1Cc2ccccc2CC1C(=O)N[C@H](C=O)Cc1ccccc1` (single isomer, unassigned) [Compound 95], in test [1], the IC50 is 278 nM. Also, in test [1] (0.1 uM), the “Calpain % I @ 0.1 uM” value was 17%. The “Cat B % I @ 1 uM” value in test [2] (1 uM) was found to be 38%. Moreover, the inhibition at 1 µM in test [3] turned out to be 100%. Moreover, in test [4], the “Thrombin % I @ 10 uM” value is 1%. Also, in test [5], the “Chymotrypsin % I @ 10 uM” value was determined as 0%.
With `CS(=O)(=O)N[C@H](COCc1ccccc1)C(=O)N[C@H](C=O)CCCCNS(=O)(=O)c1ccccc1` [Compound 122], the IC50 in test [1] came to 3 nM. Also, the inhibition at 0.1 µM in test [1] (0.1 uM) was 98%. For the same compound, the inhibition at 1 µM in test [2] (1 uM) and in test [3] was 100% throughout. Further, the inhibition at 10 µM turned out to be 0% in test [4] and 13% in test [5].
